Tested on: Staphylococcus aureus
Assay: Microorganism kill against airborne Staphylococcus aureus, pre and post filtration
Assay type: cell-based
Conditions: TEG pipetted onto hotplate @ 250° C.

OCCOCCOCCO [TEG, triethylene glycol]
Microorganism kill against Staphylococcus aureus (log10 reduction) (Post-Filtration): 3 log10 reduction
Microorganism kill against Staphylococcus aureus, time to 3 log10 reduction (Post-Filtration): in 33 min
Microorganism kill against Staphylococcus aureus (log10 reduction) (Pre-Filtration): 3 log10 reduction
Microorganism kill against Staphylococcus aureus, time to 3 log10 reduction (Pre-Filtration): in 18.2 min
